Measurements taken from patent publication US20230140216A1, “COMBINATION THERAPY FOR TREATING MPS1” (GAIN THERAPEUTICS SA, priority 2020, published 2023).
pEC50: −log10 of the molar value.

How the values were obtained:
[1] = test system: Patient-derived fibroblasts; assay: Enzyme enhancement activity in combination with rhIDUA in patient-derived fibroblasts; assay type: cell-based, human
Description: Patient-derived fibroblasts were seeded at 4×10^4 cells per well in 12-well cell culture plates in Dulbecco’s Modified Eagle’s Media (DMEM) supplemented with 10% of fetal bovine serum (FBS), 1% penicillin/streptomycin (P/S) (Thermo Fisher Scientific, Waltham, MA, USA) and incubated at 37° C., 5% CO2 overnight for cell attachment. Subsequently, cells were incubated in the absence or presence of the compounds and/or 1.25 nM recombinant human α-L-iduronidase protein (obtained in the Institute of Biotechnology and Biomedicine in the UAB) for 4 days. After incubation, cells were washed with phosphate-buffered saline (“PBS”) and detached using Trypsin-EDTA solution (Sigma Aldrich, St. Louis, MO, USA) to prepare cell pellets. The pellets were stored at -80° C. until activity assays were performed. α-L-iduronidase activity in cell lysates was measured by using 4-methylumbelliferyl alpha-L-iduronide substrate (Glycosynth, Warrington, UK). Briefly, lysates were resuspended in 25 µL of 0.9% NaCl containing 0.01% triton X-100 lysis buffer to promote membrane disruption. The cell suspension was sonicated and centrifuged to remove insoluble materials. Then, lysates were mixed with 25 µL of 200 µM 4-MU- alpha-L-iduronide substrate in 0.4 M sodium formate pH 3.5 0.2% triton X-100 buffer for 60 min at 37° C. The reaction was terminated by adding 200 µL of 0.5 M Glycine/0.3M NaOH buffer pH=10. The liberated 4-MU was measured on a Glomax® Discover Microplate Reader from Promega with excitation at 340 nm and emission at 460 nm. Protein quantification was determined using Pierce BCA Protein Assay Kit (Thermo Fisher Scientific, Waltham, MA, USA). Measurements were interpolated in a 4-MU standard curve and normalized by protein quantity.
Compound A increases uptake of rhIDUA protein and its enzymatic activity under a wide range of conditions (rhIDUA concentration and cell-types). Benefits are particularly evident at longer incubation times (4 days).

[2] = In vivo safety / IV maximum tolerated dose
[3] = target: T1, Aldurazyme (laronidase) IDUA activity in bone joint cartilage (Homo sapiens, UniProt P35475); assay: IDUA assay in bone joint cartilage after i.v. Aldurazyme with or without compound; assay type: in vivo, C57BL/6 male mice; conditions: mice, compound i.v. + Aldurazyme 1.2 mg/kg i.v.
T1 construct: purchased Aldurazyme; host or cells: administered i.v. to C57BL/6 male mice
T1 sequence (P35475 26-653 limits assumed): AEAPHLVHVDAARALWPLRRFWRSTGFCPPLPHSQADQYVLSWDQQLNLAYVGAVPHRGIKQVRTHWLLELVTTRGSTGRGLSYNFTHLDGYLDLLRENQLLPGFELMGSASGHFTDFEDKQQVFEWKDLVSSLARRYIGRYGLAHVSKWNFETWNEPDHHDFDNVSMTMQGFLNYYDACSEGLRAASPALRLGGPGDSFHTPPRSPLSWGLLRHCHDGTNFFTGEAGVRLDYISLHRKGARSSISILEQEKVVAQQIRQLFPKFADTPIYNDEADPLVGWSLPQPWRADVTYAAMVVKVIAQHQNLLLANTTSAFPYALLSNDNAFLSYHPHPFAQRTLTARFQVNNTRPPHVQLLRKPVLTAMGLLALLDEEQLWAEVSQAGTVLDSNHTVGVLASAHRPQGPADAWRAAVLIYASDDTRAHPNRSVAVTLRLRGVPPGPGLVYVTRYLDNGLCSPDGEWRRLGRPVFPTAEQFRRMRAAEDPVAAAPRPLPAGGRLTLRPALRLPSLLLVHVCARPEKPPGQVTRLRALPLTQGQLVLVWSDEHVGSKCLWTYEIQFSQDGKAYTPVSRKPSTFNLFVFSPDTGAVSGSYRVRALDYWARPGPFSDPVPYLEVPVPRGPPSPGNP
Description: Evaluation of IDUA activity in mouse bone joint cartilage samples obtained from BIO-PCY-19-025 study, where C57BL/6 male mice were administered with 1.2 mg/kg Aldurazyme (i.v. bolus administration) in the presence and absence of Compound A.
Groups Details: • G1: Vehicle 2 +Aldurazyme (1.2 mg/kg,i.v.,) QD×1(n=6) [vehicle 2:NMP (5%) + Solutol HS-15 (5%) + Normal saline (45%) + PEG-400 (45%)]; • G2: Compound A (5 mg/kg, i.v.) + Aldurazyme (1.2 mg/kg, i.v.) QD x 1 (n=6); • G3: Compound A (10 mg/kg, i.v.) + Aldurazyme (1.2 mg/kg, i.v.) QD x 1 (n=6); • G4: Compound A (20 mg/kg, i.v.) + Aldurazyme (1.2 mg/kg, i.v.) QD x 1 (n=6); and • G5: Naïve Control (n=6).
Bone joint cartilage samples from mice were collected at indicated time points. Tissues were homogenized in RIPA buffer, protein was extracted was diluted in water. Total protein was estimated using Bradford reagent. 25 µl of tissue homogenate and plasma samples were added to 25 µl of 0.18 mM of 4 MUI substrate and incubated at 37° C. for 30 min. Reaction was terminated using 200 µl of stop solution (0.3 M Glycine and 0.2 M sodium carbonate, pH 10.4). Plate was read at excitation 355 nm and emission 460 nm. […]
IDUA activity was assessed from 4-MU standard curve. […] Final IDUA enzyme activity was expressed as nmols/mg of protein/hr. Data was analyzed using GraphPad prism software with one way ANOVA followed by Dunnett’s comparison test. […]

CCN(CC(=O)Nc1c(Cl)cccc1Cl)Cc1nc2ccsc2c(=O)[nH]1 [Compound A]
activity across a panel of patient-derived fibroblasts ([1]; 96h): active across a panel of patient-derived fibroblasts
amount of α-L-iduronidase in fibroblasts ([1]; 96h): increases the amount of α-L-iduronidase in fibroblasts
pEC50 ([1]; Homo sapiens, Fibroblast, fibroblasts, 96h, co-administration with rhIDUA, read-out: cell-based EC50 (IDUA activity/uptake with rhIDUA)): 4.80
IDUA cell uptake on co-administration ([1]; Hurler-Scheie fibroblasts, 50 µM compound, 96h, vs. single agent): marked increase of IDUA cell uptake
effect versus incubation time ([1]; fibroblasts): increases at longer incubation times
safety at tested doses ([2]; i.v., all doses tested): safe at all doses tested
MTD ([2]; mouse, in vivo, iv): 45 mg/kg
IDUA enzymatic activity in bone joint cartilage [3]: increases IDUA enzymatic activity in a panel of tissues
